According to patent US20050048122A1, “Method for stabalizing timolol concentration” (Pharmacia & Upjohn Company, priority 2003, published 2005):

Experiment: Storage of the aqueous ophthalmic composition in polyethylene bottles: concentration of active ingredient over time
Assay type: physicochemical
Conditions: for concentration upon storage at low temperature / concentration upon storage at room temperature: polyethylene bottles; for concentration upon storage at low temperature: low (2-8° C.) temperature
Protocol: The ophthalmic products XALATAN® (comprising approximately 50 μg/ml latanoprost) and XALCOM® (comprising approximately 50 μg/ml latanoprost and 5 mg/ml timolol) are packaged in bottles. The bottle is typically made of clear low-density polyethylene with a clear low-density polyethylene dropper tip, a high-density polyethylene screw cap, and a clear low-density polyethylene overcap. Unopened bottles are stored at 2-8° C.
While storage at recommended temperature has proven to be an effective way of maintaining product stability of the ophthalmic products, it would be desirable to store such ophthalmic products at room temperature for prolonged periods without adversely affecting the concentration(s) of the active ingredient(s).
Following extensive research, a better understanding of the above-mentioned phenomenon has now been achieved. When the polyethylene packages are stored, moisture from the composition is lost to the atmosphere. Moreover, prostaglandin itself is absorbed into or adsorbed to the bottle resin and thus removed from the composition. […] Thus, the concentration of timolol increases over time and may have undesired systemic effects upon administration to the eye. This net effect of this phenomenon is more pronounced at room temperature than at low temperature.

concentration upon storage at low temperature | concentration upon storage at room temperature | SMILES | loss to the atmosphere or absorption/adsorption by the package material (polyethylene packages on storage)
maintained at a nearly constant level | maintained at a nearly constant level | CC(C)OC(=O)CCC/C=C\C[C@@H]1[C@@H](CC[C@@H](O)CCc2ccccc2)[C@H](O)C[C@@H]1O [latanoprost] | 
maintained at a nearly constant level | increases gradually over time | CC(C)(C)NC[C@H](O)COc1nsnc1N1CCOCC1 [timolol, (S)-1-[(1,1-dimethylethyl)amino]-3-[ [4-(4-morpholinyl)-1,2,5-thiadiazol-3-yl]oxy]-2-propanol] | neither lost to the atmosphere nor absorbed/adsorbed by the package material to any large extent
